Data set [1] has as its system TEL-cKIT/T670I-BaF3. Kind of data set: TEL-cKIT/T670I-BaF3 cell tumor transplantation mouse model. It counts as in vivo. On the procedure:
(§1) (1) 4-6 weeks old Bal b/c female mice were purchased from Beijing Weitong Lihua Experimental Animal Co., Ltd. and were reared in SPF-level laboratories. Drinking water and litter were sterilized by autoclaving. All operations on mice were performed under sterile conditions.
(§2) (2) On day 0, about 5×10^6 TEL-cKIT/T670I-BaF3 or 5×10^6 GIST-T1-T670I cells were injected subcutaneously on the left back of all mice, respectively.
(§3) (3) For the mouse model of TEL-cKIT/T670I-BaF3, starting from day 6, the corresponding mice were orally administered every day methyl cellulose (HKI) vehicle (5 mice); […]; sunitinib (purchased from MedChemExpress, China) at a dose of 40 mg/kg mouse weight (5 mice). For the mouse model of GIST-T1-T670I, starting from day 15, the corresponding mice were orally administered every day methyl cellulose (HKI) vehicle (5 mice); Compound 9 at a dose of 20 mg/kg, 30 mg/kg, 40 mg/kg (5 mice each); sunitinib at a dose of 40 mg/kg mouse weight (5 mice).
(§4) (4) Starting from day 6 (the mouse model of TEL-cKIT/T670I-BaF3) and day 15 (the mouse model of GIST-T1-T670I), the length/width of the subcutaneous tumors was measured with a vernier caliper every day, the body weight of the mice was recorded every day, and the effect of compound 9 on the body weight of the mice was determined respectively.
(§5) (5) The growth trend of […] tumors was calculated, with the calculation method of tumor volume: length×width×width/2 mm^3.

The test system of data set [2] is TEL-cKIT/T670I-BaF3. Kind of data set: Cell proliferation (CCK-8, 72 h), TEL-cKIT/T670I-BaF3. It is filed as cell-based. Conditions: Mus musculus, BaF3, 72 h, read-out: GI50 TEL-cKIT/T670I-BaF3. From the text:
(§6) In this example, human gastrointestinal stromal tumor cell line GIST-T1 (expressing wild-type C-KIT gene) (purchased from Cosmo Bio Co., Ltd. (Japan)), human gastrointestinal stromal tumor cell line GIST-T1-T670I (expressing C-KIT-T670I mutant gene) (constructed by our laboratory with CRISPR technology), mouse […] BaF3 (purchased from ATCC) were used. In addition, in this Example, mouse Tel-cKit-BaF3 (stably expressing C-KIT wild-type kinase), mouse Tel-cKit/T670I-BaF3 (stably expressing cKIT T670I mutant kinase), mouse Tel-PDGFRα-BaF3 (stably expressing PDGFRα kinase), mouse Tel-PDGFRβ-BaF3 (stably expressing PDGFRβ kinase), mouse Tel-VEGFR2-BaF3 (stably expressing VEGFR2 kinase), mouse Tel-FLT3-BaF3 (stably expressing FLT3 kinase) were also used. The above cell lines were all constructed by our laboratory. The construction method was as follows: the human C-KIT, C-KIT T670I, PDGFRα, PDGFRβ, VEGFR2, FLT3 kinase region sequences were amplified by PCR respectively and inserted into MSCV-Puro vector (purchased from Clontech) with N-terminal TEL fragment and/or NPM fragment and/or TPR fragment respectively, which was stably transferred into mouse BaF3 cells by retroviral method, and IL-3 growth factor was removed, and finally the cell lines in which protein was transferred depending on C-KIT, C-KIT/T670I, PDGFRα, PDGFRβ, VEGFR2, FLT3 were obtained. The GIST-T1-T670I (expressing C-KIT-T670I mutant gene) cell line was constructed by our laboratory. The construction method was as follows: the sgRNA targeting near the T670 site of the KIT gene was designed by the CRISPR design tool of the Zhang Feng Laboratory of the Massachusetts Institute of Technology (URL: crispr.mit.edu) and cloned into pSpCas9(BB)-2A-Puro vector (Addgene, USA); the obtained vector and a single-stranded oligonucleotide with T670I mutation near the T670 site were co-transfected into the cells, and after antibiotic selection, they were diluted and cultured in a single cell in a 96-well plate; the T670 site of the cells was sequenced and verified by the Sanger sequencing method.

Data set [3] deals with BaF3. Kind of data set: Cell proliferation (CCK-8, 72 h), parental BaF3. It is filed as cell-based. Conditions: Mus musculus, parental BaF3 cells.
Description: as §6

Data set [4] has as its system GIST-T1-T670I. Kind of data set: Cell proliferation (CCK-8, 72 h), GIST-T1-T670I. It counts as cell-based. Conditions: Homo sapiens, GIST-T1-T670I (C-KIT-T670I mutant, Imatinib-resistant).
Description: as §6

Data set [5] concerns GIST-T1. Kind of data set: Cell proliferation (CCK-8, 72 h), GIST-T1. It counts as cell-based. The following applies: Homo sapiens, GISTT1, GIST-T1 (wild-type C-KIT gene).
Description: as §6

In data set [6] the test system is TEL-cKIT-BaF3. Kind of data set: Cell proliferation (CCK-8, 72 h), TEL-cKIT-BaF3. It is filed as cell-based. The following applies: Mus musculus, BaF3 expressing wild-type C-KIT kinase.
Description: as §6

The subject of data set [7] is GIST-T1-T670I. Briefly: GIST-T1-T670I cell tumor transplantation mouse model. It is filed as in vivo. The following applies: for tumor inhibition rate: 40 mg/kg oral daily. The method, then: as §1, §2, §3, §4, §5
Data set [8] deals with TEL-FLT3-BaF3. Kind of data set: Cell proliferation (CCK-8, 72 h), TEL-FLT3-BaF3. It counts as cell-based. The following applies: Mus musculus, BaF3 expressing FLT3 kinase.
Description: as §6

The subject of data set [9] is TEL-VEGFR2-BaF3. Kind of data set: Cell proliferation (CCK-8, 72 h), TEL-VEGFR2-BaF3. It is filed as cell-based. Conditions: Mus musculus, BaF3 expressing VEGFR2 kinase.
Description: as §6

Results on one molecule are retold here after patent publication US12162876B2, “Indazole kinase inhibitor and use thereof” (Tarapeutics Science Inc., priority 2018, dated 2024).

On to `Cc1nc(NC(=O)CN2CCN(C)CC2)sc1-c1ccc2c(/C=C/c3ccccn3)n[nH]c2c1` [Compound 9, (E)-N-(4-methyl-5-(3-(2-(pyridin-2-yl)vinyl)-1H-indazol-6-yl)thiazol-2-yl)-2-(4-methylpiperazin-1-yl)acetamide], for which the tumor inhibition rate is given as at most 80% in data set [1] (40 mg/kg oral daily, with increasing days of treatment); 100% in data set [1] (100 mg/kg oral daily, day 11 after administration); 84.3% in [7] (day 28 after administration); at most 80% in data set [7] (with increasing days of treatment). Moreover, the “effect on the body weight of mice” value in [1] (oral daily) and in data set [7] (oral daily) was “no effect” each time. In addition, the GI50 was 9 nM in [2]; 1400 nM in [3]; 39 nM in data set [4]; 19 nM in [5]; 923 nM in [6]; 1 nM in data set [8]. The same molecule had a GI50 in data set [9] of 180 nM.
